Consider eleven molecules from ChEMBL document CHEMBL1201862, “PubChem BioAssay data set” (2004).

Assay [1] concerns the target T1, Adenosylmethionine-8-amino-7-oxononanoate aminotransferase (Mycobacterium tuberculosis, UniProt P9WQ81).
T1 sequence (P9WQ81 whole entry): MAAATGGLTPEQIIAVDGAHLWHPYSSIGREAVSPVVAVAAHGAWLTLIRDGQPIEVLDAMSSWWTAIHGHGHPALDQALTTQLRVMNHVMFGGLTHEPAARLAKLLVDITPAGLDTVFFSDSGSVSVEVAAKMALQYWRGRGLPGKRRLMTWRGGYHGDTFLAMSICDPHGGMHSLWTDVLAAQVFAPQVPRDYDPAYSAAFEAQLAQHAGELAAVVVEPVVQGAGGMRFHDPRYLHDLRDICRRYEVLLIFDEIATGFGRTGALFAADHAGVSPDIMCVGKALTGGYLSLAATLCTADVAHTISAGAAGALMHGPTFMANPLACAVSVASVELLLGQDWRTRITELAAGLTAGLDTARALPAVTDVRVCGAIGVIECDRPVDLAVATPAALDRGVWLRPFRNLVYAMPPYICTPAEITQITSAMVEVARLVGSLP
The assay is described as follows: Mycobacterium tuberculosis BioA enzyme inhibitor Measured in Biochemical System Using Plate Reader - 2163-02_Inhibitor_Dose_CherryPick_Activity. The assay is classed as functional, Mycobacterium tuberculosis UT205.

Assay [2] has as its system BJ. The assay is described as follows: BJ-TERT fibroblast viability loss – cell-based, RAS-independent, luminescence, dose response (AID 1933). The assay is classed as functional. The following applies: Homo sapiens.
For assay [3], the target named is T2, Luciferin 4-monooxygenase (Photinus pyralis, UniProt P08659). The assay is described as follows: Counter Screen for Luciferase-based Assay Positives. [Related pubchem assays: 620, 618, 411 ].
The subject of assay [4] is BJ. The assay is described as follows: cells. The assay is classed as functional, cell-based. The following applies: Homo sapiens.
Assay [5] deals with T2, Luciferin 4-monooxygenase. The assay can be described thus: inhibition of purified Photinus pyralis luciferase – biochemical, luminescence, dose response (AID 1891).
Assay [6] in a line: Luminescence Cell-Based Dose Confirmation HTS to Identify Inhibitors of Platelet Dense Granule Release. [Related pubchem assays: 1663 (Primary HTS), 1678 (Summary of Project)]. Type of assay: functional.
Another assay concerns HT-1080. The assay is described as follows: HT1080 cell viability loss – fluorescence readout (AID 620). The assay is classed as functional, cell-based. The following applies: Homo sapiens.
For assay [7], the system named is BJ. The assay is described as follows: BJ-TERT-LT-ST fibroblast viability loss – cell-based, RAS-independent, luminescence, dose response (AID 1935).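 Note: BJ fibroblasts immortalized with TERT plus LT and ST oncogenes.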 The assay is classed as functional. To be noted: Homo sapiens.
Assay [8] is described as follows: DRD fibroblast viability loss – cell-based, non-viral oncogenic, luminescence, dose response (AID 1934). The assay is classed as functional. To be noted: Homo sapiens.
In assay [9] the target is Heat shock protein HSP 90-alpha (Homo sapiens, UniProt P07900). The assay is classed as functional, organism-based.
The subject of assay [10] is BJ. The assay can be described thus: growth inhibition of engineered Ras-driven BJ cells – cell-based, alamar blue fluorescence, cherrypicked samples, dose response (AID 2631).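 Note: confirmatory dose-response assay in RAS-dependent BJ fibroblasts engineered with TERT, LT and ST, with cytotoxicity read by fluorescence.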 The following applies: Homo sapiens. Type of assay: functional.
Assay [11] deals with 26S proteasome non-ATPase regulatory subunit 14 (Homo sapiens, UniProt O00487). The assay is described as follows: inhibition of proteasome subunit RPN11 – biochemical, fluorescence polarization, uHTS hits, confirmation (AID 602368). The assay is classed as functional. (Polarisation of emitted light reports the rotation of a fluorescent probe.)
Assay [12] concerns the target 72 kDa type IV collagenase (Homo sapiens, UniProt P08253). The assay is described as follows: Dose Response validation of uHTS RPN11 inhibitor hits using a MMP-2 Fluorescence assay. The assay is classed as functional.
The target of a further assay is Prothrombin (Bos taurus, UniProt P00735). The assay is described as follows: thrombin protease inhibitors – biochemical, fluorescence polarization, uHTS hits, dose response (AID 602369). The assay is classed as functional.
The target of a further assay is Large T antigen (Simian virus 40, UniProt P03070). The assay is classed as functional, Betapolyomavirus macacae.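 Note: Confirmatory-stage PubChem screen for compounds that inhibit SV40 T antigen.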
The nature of assay [13]: Luminescence Cell-Based Dose Retest to Confirm Inhibitors of Cancer Stem Cells. [Related pubchem assays (depositor defined):AID2717, AID2721]. Type of assay: functional. The following applies: Homo sapiens.
Assay [14] has as its target T3, Microphthalmia-associated transcription factor (Homo sapiens, UniProt O75030).
T3 sequence (O75030 whole entry): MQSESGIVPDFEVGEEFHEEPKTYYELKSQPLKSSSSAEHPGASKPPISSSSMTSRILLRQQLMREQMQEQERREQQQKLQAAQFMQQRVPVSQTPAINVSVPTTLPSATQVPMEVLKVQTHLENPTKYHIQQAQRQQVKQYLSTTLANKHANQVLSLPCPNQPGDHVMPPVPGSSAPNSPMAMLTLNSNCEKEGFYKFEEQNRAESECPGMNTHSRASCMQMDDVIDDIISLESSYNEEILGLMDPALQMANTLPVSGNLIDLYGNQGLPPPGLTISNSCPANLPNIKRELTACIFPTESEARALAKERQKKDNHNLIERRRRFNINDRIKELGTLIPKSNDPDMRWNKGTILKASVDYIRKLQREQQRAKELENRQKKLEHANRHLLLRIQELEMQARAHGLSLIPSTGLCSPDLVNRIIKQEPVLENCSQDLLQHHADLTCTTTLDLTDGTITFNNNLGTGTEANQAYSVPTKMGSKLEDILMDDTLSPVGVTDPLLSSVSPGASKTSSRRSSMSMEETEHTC
The assay is described as follows: reducers of TRPM1 reporter luminescence, concentration series – cell-based, SK-MEL-5, cherry-picked, set 3, MITF inhibitor project, dose response (AID 493073).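 Note: SK-MEL-5 melanoma cells with luciferase driven by the MITF target TRPM1 promoter.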 Type of assay: functional.

The nature of assay [15]: Fluorescence-based cell-based high throughput dose response assay for inhibitors of the interaction of nucleotide-binding oligomerization domain containing 2 (NOD2) and the receptor-interacting serine-threonine kinase 2 (RIPK2). Type of assay: functional. To be noted: Homo sapiens.
Assay [16] addresses T4, Sentrin-specific protease 8 (Homo sapiens, UniProt Q96LD8).
T4 sequence (Q96LD8 whole entry): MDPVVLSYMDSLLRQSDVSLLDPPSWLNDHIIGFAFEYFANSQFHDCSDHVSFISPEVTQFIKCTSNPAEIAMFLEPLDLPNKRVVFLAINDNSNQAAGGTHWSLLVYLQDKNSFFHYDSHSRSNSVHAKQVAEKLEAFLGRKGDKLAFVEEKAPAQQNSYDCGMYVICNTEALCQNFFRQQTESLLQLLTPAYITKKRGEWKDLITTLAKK
The assay is classed as functional.

Assay [17] deals with T4, Sentrin-specific protease 8. The assay is classed as functional. This is another data set of the same source.
Assay [18] deals with T5, Carboxy-terminal domain RNA polymerase II polypeptide A small phosphatase 1 (Homo sapiens, UniProt Q9GZU7).
T5 sequence (Q9GZU7 whole entry): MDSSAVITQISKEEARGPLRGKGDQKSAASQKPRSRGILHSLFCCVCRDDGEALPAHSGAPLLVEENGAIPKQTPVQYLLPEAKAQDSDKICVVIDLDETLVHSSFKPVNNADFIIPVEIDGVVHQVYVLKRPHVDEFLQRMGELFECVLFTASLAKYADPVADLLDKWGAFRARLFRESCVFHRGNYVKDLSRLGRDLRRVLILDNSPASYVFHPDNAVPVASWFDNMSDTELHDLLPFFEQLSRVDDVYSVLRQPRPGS
The assay is described as follows: CTDSP1 inhibitors, concentration-response, biochemical, absorbance readout, ultra-high-throughput screen actives (AID 540297). Type of assay: functional.

Assay [19] deals with T6, Low molecular weight phosphotyrosine protein phosphatase (Homo sapiens, UniProt P24666).
T6 sequence (P24666 whole entry): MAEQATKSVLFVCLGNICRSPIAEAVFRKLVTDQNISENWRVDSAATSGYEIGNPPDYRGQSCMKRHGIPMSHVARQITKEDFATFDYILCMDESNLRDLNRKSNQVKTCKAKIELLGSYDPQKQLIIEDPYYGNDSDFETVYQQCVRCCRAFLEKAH
Type of assay: functional. The following applies: read-out: IC50_Mean.

Calls of active or inactive are those of the source.

The AC50 is the concentration at which the activity in the assay is half-maximal. For orientation: EC50 means the concentration that produces a half-maximal response.
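Throughout, for IC50 Mean: Dose-response confirmation assay measuring inhibition of LMPTP enzyme activity by fluorescence intensity read-out.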

72 kDa type IV collagenase, sequence (P08253 whole entry): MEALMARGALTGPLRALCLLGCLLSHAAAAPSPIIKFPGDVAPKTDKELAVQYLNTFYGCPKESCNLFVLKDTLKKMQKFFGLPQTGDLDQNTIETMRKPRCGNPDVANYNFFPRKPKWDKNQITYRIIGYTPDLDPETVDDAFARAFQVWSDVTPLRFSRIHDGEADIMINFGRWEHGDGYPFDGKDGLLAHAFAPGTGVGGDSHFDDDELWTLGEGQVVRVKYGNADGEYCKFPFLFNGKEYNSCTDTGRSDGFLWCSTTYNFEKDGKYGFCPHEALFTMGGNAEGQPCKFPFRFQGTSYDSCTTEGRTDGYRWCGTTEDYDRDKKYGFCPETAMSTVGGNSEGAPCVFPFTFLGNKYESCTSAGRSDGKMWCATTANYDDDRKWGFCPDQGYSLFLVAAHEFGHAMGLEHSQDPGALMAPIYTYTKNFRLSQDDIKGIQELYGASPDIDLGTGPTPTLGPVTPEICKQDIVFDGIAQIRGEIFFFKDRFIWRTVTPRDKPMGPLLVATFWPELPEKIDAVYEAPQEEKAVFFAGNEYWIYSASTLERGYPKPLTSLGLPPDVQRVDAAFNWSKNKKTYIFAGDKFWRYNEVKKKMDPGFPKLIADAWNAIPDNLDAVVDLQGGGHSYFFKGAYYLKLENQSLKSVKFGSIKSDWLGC
26S proteasome non-ATPase regulatory subunit 14, sequence (O00487 whole entry): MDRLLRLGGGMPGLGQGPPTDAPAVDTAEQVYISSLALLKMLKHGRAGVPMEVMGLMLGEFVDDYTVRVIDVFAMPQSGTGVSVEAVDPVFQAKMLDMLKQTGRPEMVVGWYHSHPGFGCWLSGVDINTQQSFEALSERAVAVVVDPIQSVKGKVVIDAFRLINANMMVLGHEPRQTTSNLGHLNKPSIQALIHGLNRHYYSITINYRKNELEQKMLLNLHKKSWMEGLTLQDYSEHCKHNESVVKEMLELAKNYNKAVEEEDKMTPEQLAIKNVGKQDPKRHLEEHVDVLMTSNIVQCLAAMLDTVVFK
T2 sequence (P08659 whole entry): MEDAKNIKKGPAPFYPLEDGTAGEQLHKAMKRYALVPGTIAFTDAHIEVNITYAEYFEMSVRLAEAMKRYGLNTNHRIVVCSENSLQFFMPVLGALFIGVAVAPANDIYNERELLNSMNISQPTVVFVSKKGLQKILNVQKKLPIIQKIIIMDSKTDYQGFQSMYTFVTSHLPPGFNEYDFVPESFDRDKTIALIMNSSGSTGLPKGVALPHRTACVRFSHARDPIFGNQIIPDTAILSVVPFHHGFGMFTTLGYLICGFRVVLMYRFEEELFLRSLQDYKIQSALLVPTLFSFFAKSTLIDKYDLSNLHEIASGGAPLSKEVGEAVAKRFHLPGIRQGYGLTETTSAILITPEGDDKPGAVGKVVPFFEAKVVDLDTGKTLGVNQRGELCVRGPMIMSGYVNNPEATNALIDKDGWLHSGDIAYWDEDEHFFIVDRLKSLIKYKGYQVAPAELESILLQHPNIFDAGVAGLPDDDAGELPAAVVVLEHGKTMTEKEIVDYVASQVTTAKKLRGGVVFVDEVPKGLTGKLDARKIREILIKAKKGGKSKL
Large T antigen, sequence (P03070 whole entry): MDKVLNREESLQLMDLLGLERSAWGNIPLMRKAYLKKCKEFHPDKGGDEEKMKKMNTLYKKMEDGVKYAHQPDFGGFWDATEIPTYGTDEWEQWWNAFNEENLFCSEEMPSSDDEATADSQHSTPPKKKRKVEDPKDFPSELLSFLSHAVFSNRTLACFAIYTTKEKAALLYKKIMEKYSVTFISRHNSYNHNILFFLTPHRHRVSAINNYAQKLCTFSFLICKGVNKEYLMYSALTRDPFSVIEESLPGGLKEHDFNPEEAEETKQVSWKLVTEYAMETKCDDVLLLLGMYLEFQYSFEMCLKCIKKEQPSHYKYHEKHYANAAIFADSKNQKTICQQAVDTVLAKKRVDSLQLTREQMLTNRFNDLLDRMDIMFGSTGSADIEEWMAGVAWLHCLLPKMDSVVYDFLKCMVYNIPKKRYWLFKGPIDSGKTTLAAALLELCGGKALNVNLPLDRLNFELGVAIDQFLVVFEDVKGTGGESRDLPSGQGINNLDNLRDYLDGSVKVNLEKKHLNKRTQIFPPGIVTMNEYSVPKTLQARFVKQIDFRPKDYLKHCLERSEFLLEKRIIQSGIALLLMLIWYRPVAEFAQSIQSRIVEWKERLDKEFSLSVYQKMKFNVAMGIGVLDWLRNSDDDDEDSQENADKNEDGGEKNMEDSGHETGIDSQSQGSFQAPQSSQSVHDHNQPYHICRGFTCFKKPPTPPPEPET

As to `Cc1nc2nc(SCC(=O)N3CCC4(CC3)OCCO4)nn2c(C)c1Cc1ccccc1`, the AC50 in assay [1] is 2.82 µM (active).

With `CC(=O)OCC(=O)[C@@]1(OC(C)=O)[C@@H](C)C[C@H]2[C@@H]3C[C@H](F)C4=CC(=O)C=C[C@]4(C)[C@@]3(F)[C@@H](O)C[C@@]21C` [DIFLORASONE DIACETATE], in [1], the AC50 is 9.06 µM (active).

Consider `CCOc1ccc2nc(NC(=O)c3ccoc3C)sc2c1`, for which the EC50 in the assay with BJ [2] was 2.43 µM (active); in assay [3], 6.49 µM (active); with BJ [4], 1.79 µM (active); in assay [5] it was < 0.088 µM (active); in [6], 0.231 µM (active); in the assay with HT-1080 it was > 50 µM (not active). Besides, the EC50 in the assay on BJ [7] was 6.32 µM (active); in assay [8] it was 1.97 µM (active); in the assay with BJ [10], > 133 µM (inactive). For the same molecule, the AC50 in assay [9] is 2.02 µM (active).

As for `Cc1cc(C)c(S(=O)(=O)N2C[C@H]3CON(C)[C@H]3C[C@H]2c2ccc(N3CCCCC3)cc2)c(C)c1`, the IC50 in [11] was 23.2 µM (active); in assay [12] it was > 100 µM (inactive); on Prothrombin, 29.2 µM (active).

Turning to `Cc1cc(C)cc(NC(=O)Cn2nnc(C(=O)NCc3ccc4c(c3)OCO4)c2N)c1`, the IC50 was 22.9 µM (active) in assay [11], > 100 µM (inactive) in assay [12] and 72.2 µM (active) on Prothrombin.

With `CC1=CC2=NC(=O)/C(=C\c3cc(C)n(-c4ccccc4F)c3C)C(=N)N2O1`, the AC50 in assay [1] is 0.247 µM (active).

As for `COc1ccc(-n2c(/C=C/c3ccc(O)c(O)c3)nc3ccccc3c2=O)cc1`, the IC50 on Large T antigen is 55.9 µM (active); in [11] it was 9.05 µM (active); in assay [12], > 100 µM (inactive); at Prothrombin, 6.49 µM (active).

Turning to `O=[N+]([O-])c1cc(S(=O)(=O)N2CCCCCC2)ccc1F`, the AC50 is 3.09 µM (active) in [13] and 9.53 µM (active) in assay [14]. In addition, the IC50 in [15] was 1.53 µM (active).

For `COC/C=C/C1=CC2=CC(=O)C(C)(OC(=O)c3cnc4ccccc4n3)C(=O)C2=CN1Cc1ccccc1` (stereo unspecified), the IC50 in assay [16] is 18.9 µM (active); in assay [17], 12.7 µM (active).

Regarding `O=c1c2cc(-c3ccccc3)sc2nc2n1N=C(c1cccs1)CS2`, the IC50 was 6.3 µM (active) in assay [18] and 13.7 µM (active) in assay [19].

With `COc1ccc(CNc2nc(-c3ccccc3)nc3ccccc23)cc1OC`, the IC50 in assay [19] is 9.94 µM (active).
